In US20250215460A1, “MICROBIAL […] THE CONVERSION OF CARBOHYDRATES” (Ohio State Innovation Foundation, priority 2022, published 2025):

Tests used:
[1] = tested on: C. tyrobutyricum Δcat1::adhE2; assay: Batch fermentations of glucose and xylose in bioreactors at pH 6.0 with methyl viologen; assay type: cell-based, Clostridium tyrobutyricum
Method: Batch fermentations of glucose and xylose by C. tyrobutyricum Δcat1::adhE2 were studied in bioreactors at pH 6.0 in the presence of methyl viologen (MV) at various concentrations (0 μM, 200 μM, 500 μM, 1000 μM). For glucose fermentation, MV was added at 12 h after inoculation. […] The fermentation time course data are shown in FIGS. 11A-11H and the effects of MV on cell growth and fermentation kinetics are illustrated in FIG. 12. […] Similar trends were also observed with xylose as the substrate at 200 μM MV. […] The results also indicate that biomass hydrolysate sugars including glucose and xylose can be used simultaneously and converted to butanol by engineered C. tyrobutyricum expressing adhE2.

[2] = tested on: C. tyrobutyricum Δcat1::adhE2; assay: Batch fermentation of glucose in serum bottles with methyl viologen added; assay type: cell-based, Clostridium tyrobutyricum
From the text: Artificial electron carriers such as methyl viologen, benzyl viologen and neutral red have been used in solventogenic clostridia to increase butanol production through diverting electron flow towards NADH formation accompanied by decreased hydrogen production. An artificial electron carrier, such as methyl viologen (MV) and benzyl viologen (BV), was used to inhibit hydrogen production and increase NADH pool and butanol production by C. tyrobutyricum expressing adhE2. C. tyrobutyricum Δcat1::adhE2 was cultured in Clostridia Growth Medium (CGM) containing glucose as the carbon source in serum bottles at 37° C. The medium pH was buffered at ˜5.5 with CaCO3. At 24 h after initial seeding the bottles, methyl viologen was added at various concentrations (up to 1000 μM) to study its effects on cell growth and butanol production. […] The highest butanol yield and productivity were obtained at 500 μM MV. Similar results can also be achieved with other electron carriers such as benzyl viologen and neutral red.

SMILES: C[n+]1ccc(-c2cc[n+](C)cc2)cc1 [MV, methyl viologen]
- Toxicity to cells, xylose compared to glucose ([1]; bioreactor, pH 6.0): more toxic to cells grown on xylose
- Effect on product formation with increasing MV concentration ([1]; glucose as substrate, MV 0-1000 μM added at 12 h, pH 6.0): butanol and lactate production increased while acetate and butyrate production decreased
- Effect on cell growth and fermentation ([1]; xylose as substrate, 500 μM and 1000 μM MV added at 24 h, pH 6.0): completely inhibited cell growth and stopped fermentation
- Effect on cell growth and fermentation (figure legend) ([1]; xylose fermentation, 500 mM and 1000 mM MV, addition delayed to 24 h): completely inhibited cell growth and fermentation
- Effect on acetate and butanol production from glucose ([2]; MV up to 1000 μM added at 24 h, pH ~5.5, 37° C.): dramatically reduced acetate production and increased butanol production
- MV concentration at which lactate was also produced as a byproduct ([2]; glucose, pH ~5.5): ≥ 200 µM
- MV concentration giving the highest butanol yield and productivity ([2]; glucose, pH ~5.5): 500 µM
